A word on the IC50: it is the concentration at which inhibition is half-maximal. Low values mean higher potency, high ones lower potency.

One test has as its target T1, motilin receptor (Oryctolagus cuniculus, UniProt G1T803).
T1 construct: homogenized in 50 mM Tris buffer to prepare a protein sample; from tissue; host or cells: rabbit duodenum homogenate (mucous membrane separated)
As to the kind of experiment: Motilin receptor binding test (125I motilin, rabbit duodenum protein sample). To be noted: 125I motilin 25 pM, concentration reducing specific binding by 50%. The procedure: Motilin receptor binding test
A motilin receptor binding test was conducted in the following manner [Vantrappen et al., Regul. Peptides, 15, 143 (1986)]. The duodenum was extracted from a slaughtered rabbit, had the mucous membrane separated and homogenized in 50 mM Tris buffer to prepare a protein sample. The protein sample was incubated together with ^125I motilin 25 pM and thereafter the radioactivity bound to the protein was measured. Specific binding was defined as the difference between the radioactivity in the case of adding a great excess amount of motilin (10^−7 M) and that in the case of no adding. The activity of the compound was expressed by IC50 (in nM), as the concentration sufficient to reduce the specific binding by 50%.

For test [1], the system named is specimen of longitudinal muscle in the duodenum extracted from a rabbit (motilin-induced contraction). Kind of test: Action on the motilin-induced contraction of a specimen of longitudinal muscle in the duodenum extracted from a rabbit. To be noted: Oryctolagus cuniculus, organ bath, Krebs solution 28° C., read-out: Contraction suppressing test, pA2 (converted). Here is the method:
Action on the Contraction of a Specimen of Longitudinal Muscle in the Duodenum Extracted from a Rabbit
The action on the motilin-induced contraction of a specimen of longitudinal muscle in the duodenum extracted from a rabbit was investigated by the following method. A duodenum specimen (5×15 mm) extracted from a slaughtered rabbit was suspended in an organ bath (10 ml) such that the longitudinal muscle would run vertically; the bath was filled with a Krebs solution kept at 28° C. A mixed gas (95% O2 and 5% CO2) was continuously bubbled into the Krebs solution and the contraction of the duodenum specimen was recorded isotonically (with a 1-g load) via an isotonic transducer (ME-3407, ME Commercial, Tokyo, Japan). The degree of contraction was expressed in relative values, with the contraction by acetylcholine at a dose of 10^−4 M being taken as 100%. The activity of the compound was calculated as pA2 value indicating its effect on the dose-dependent muscle contraction by the motilin put into the organ bath.

Where a SMILES comes first, the peptide text is derived from it. [ ]: non-standard residue; d: D form. The star is where a group is joined. ξ: configuration not given here. NMeTyr(3-tBu) = CN[C@@H](Cc1ccc(O)c(C(C)(C)C)c1)C(=O)O; ξNMeTyr(3-tBu) = CNC(Cc1ccc(O)c(C(C)(C)C)c1)C(=O)O; Tyr(3-tBu) = CC(C)(C)c1cc(C[C@H](N)C(=O)O)ccc1O; Phe(3,4-F2) = N[C@@H](Cc1ccc(F)c(F)c1)C(=O)O; NMePhe(4-F) = CN[C@@H](Cc1ccc(F)cc1)C(=O)O; Phe(4-Cl) = N[C@@H](Cc1ccc(Cl)cc1)C(=O)O; Phe(3-F) = N[C@@H](Cc1cccc(F)c1)C(=O)O; Phe(4-F) = N[C@@H](Cc1ccc(F)cc1)C(=O)O; ξW = NC(Cc1c[nH]c2ccccc12)C(=O)O; NMeL = CN[C@@H](CC(C)C)C(=O)O; NMeV = CN[C@H](C(=O)O)C(C)C; NHiPr = CC(C)N*

T1 sequence (G1T803 1-400): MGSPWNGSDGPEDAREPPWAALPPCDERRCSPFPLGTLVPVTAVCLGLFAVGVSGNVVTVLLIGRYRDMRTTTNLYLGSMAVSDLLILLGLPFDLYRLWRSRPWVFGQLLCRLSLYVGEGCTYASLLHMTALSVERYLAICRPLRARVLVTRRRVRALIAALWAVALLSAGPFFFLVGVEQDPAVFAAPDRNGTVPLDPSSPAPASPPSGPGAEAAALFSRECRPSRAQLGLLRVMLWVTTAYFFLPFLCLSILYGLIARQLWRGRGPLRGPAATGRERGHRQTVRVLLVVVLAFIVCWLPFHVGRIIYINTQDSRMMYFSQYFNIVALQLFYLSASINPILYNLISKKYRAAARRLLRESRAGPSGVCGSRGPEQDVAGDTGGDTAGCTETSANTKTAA

Consider `CNC(=O)[C@H](Cc1ccc(O)c(C(C)(C)C)c1)NC(=O)[C@H](C(C)C)N(C)C(=O)[C@H](Cc1ccc(F)cc1)NC` [Example 32, N-Me-Phe(4-F)-N-Me-Val-Tyr(3-tBu)-NHMe] (H-[NMePhe(4-F)]-[NMeV]-[Tyr(3-tBu)]-NHMe), for which, on motilin receptor, the IC50 came out at 0.76 nM. Also, the Kb in test [1] is 0.794 nM.
Take `CC(C)[C@@H](C(=O)N(C)[C@@H](Cc1ccc(O)c(C(C)(C)C)c1)C(N)=O)N(C)C(=O)[C@@H](N)Cc1ccc(Cl)cc1` [Example 2, Phe(4-Cl)-N-Me-Val-N-Me-Tyr(3-tBu)-NH2] (H-[Phe(4-Cl)]-[NMeV]-[NMeTyr(3-tBu)]-NH2): the IC50 at motilin receptor stood at 0.71 nM. Also, in test [1], the Kb was 2 nM.
For `CC(C)NC(=O)[C@H](Cc1ccc(O)c(C(C)(C)C)c1)NC(=O)[C@H](C(C)C)N(C)C(=O)[C@@H](N)Cc1ccc(F)cc1` [Example 120, Phe(4-F)-N-Me-Val-Tyr(3-tBu)-NH-i-Pr] (H-[Phe(4-F)]-[NMeV]-[Tyr(3-tBu)]-NHiPr), in that order: 0.27 nM and 1 nM.
On motilin receptor, `CC(C)[C@@H](C(=O)N(C)C(Cc1ccc(O)c(C(C)(C)C)c1)C(N)=O)N(C)C(=O)C(N)Cc1c[nH]c2ccccc12` (some centres unmarked) [Example 183, Trp-N-Me-Val-N-Me-Tyr(3-tBu)-NH2] (H-[ξW]-[NMeV]-[ξNMeTyr(3-tBu)]-NH2) showed an IC50 of 0.57 nM. The Kb in test [1] is 0.316 nM.
`CC(C)[C@@H](C(=O)N(C)[C@@H](Cc1ccc(O)c(C(C)(C)C)c1)C(=O)N1CCN(CC(=O)O)CC1)N(C)C(=O)[C@@H](N)Cc1ccc(F)cc1` [Example 136, 2-[4-((2S)-2-{(2S)-2-[(2S)-2-amino-3-(4-fluorophenyl)-N-methylpropanolyamino)-3,N-dimethylbutanoylamino}-3-[3-(tert-butyl)-4-hydroxyphenyl]propanoyl)piperazinyl]acetic acid] gave an IC50 on motilin receptor of 6.8 nM. Also, the Kb in test [1] is 25.1 nM.
Taken in the same sequence, the figures for `CC(C)[C@@H](C(=O)N(C)[C@@H](Cc1ccc(O)c(C(C)(C)C)c1)C(N)=O)N(C)C(=O)[C@@H](N)Cc1cccc(F)c1` [Example 4, Phe(3-F)-N-Me-Val-N-Me-Tyr(3-tBu)-NH2] (H-[Phe(3-F)]-[NMeV]-[NMeTyr(3-tBu)]-NH2) were 1.6 nM and 5.01 nM.
Taken in the same sequence, the figures for `CCNC(=O)[C@H](Cc1ccc(O)c(C(C)(C)C)c1)N(CC)C(=O)[C@H](C(C)C)N(C)C(=O)[C@@H](N)Cc1ccc(F)cc1` [Example 107, Phe(4-F)-N-Me-Val-N-Et-Tyr(3-tBu)-NHEt] were 0.39 nM and 2 nM.
Taken in the same sequence, the figures for `CCN(C(=O)[C@H](C(C)C)N(C)C(=O)[C@H](Cc1ccc(F)cc1)NC)[C@@H](Cc1ccc(O)c(C(C)(C)C)c1)C(=O)NC` [Example 43, N-Me-Phe(4-F)-N-Me-Val-N-Et-Tyr(3-tBu)-NHMe] were 1.9 nM and 3.16 nM.
`CCN(C(=O)[C@H](C(C)C)N(C)C(=O)[C@@H](N)Cc1ccc(F)cc1)[C@@H](Cc1ccc(O)c(C(C)(C)C)c1)C(=O)NCO` [Example 127, Phe(4-F)-N-Me-Val-N-Et-Tyr(3-tBu)-NHCH2OH]: the IC50 on motilin receptor turned out to be 1.7 nM. Besides, the Kb in test [1] was 2 nM.
The compound `CCN[C@@H](Cc1ccc(F)cc1)C(=O)N(C)[C@H](C(=O)N(CC)[C@@H](Cc1ccc(O)c(C(C)(C)C)c1)C(=O)NCO)C(C)C` [Example 129, N-Et-Phe(4-F)-N-Me-Val-N-Et-Tyr(3-tBu)-NHCH2OH] gave an IC50 on motilin receptor of 4 nM. In test [1], the Kb is 3.16 nM.
For `Cc1cc(=O)[nH]c([C@H](Cc2ccc(O)c(C(C)(C)C)c2)NC(=O)[C@H](C(C)C)N(C)C(=O)[C@@H](N)Cc2ccc(F)cc2)n1` (single isomer, unassigned) [Example 19, 2-(1-(2-((2-amino-3-(4-fluorophenyl)propionyl)-N-methylamino)-3-methyl-butyrylamino)-2-(3-tert-butyl-4-hydroxyphenyl)ethyl)-6-methyl-4-pyrimidinone], on motilin receptor, the 50% inhibitory concentration (IC50) was 2.2 nM. Moreover, the Kb in test [1] is 2 nM.
Taken in the same sequence, the figures for `CC(C)[C@@H](C(=O)N[C@@H](Cc1ccc(O)c(C(C)(C)C)c1)C(N)=O)N(C)C(=O)[C@@H](N)Cc1ccc(F)cc1` [Example 28, Phe(4-F)-N-Me-Val-Tyr(3-tBu)-NH2] (H-[Phe(4-F)]-[NMeV]-[Tyr(3-tBu)]-NH2) were 0.52 nM and 1 nM.
The compound `CC(C)[C@@H](C(=O)N(C)[C@@H](Cc1ccc(O)c(C(C)(C)C)c1)C(N)=O)N(C)C(=O)[C@@H](N)Cc1ccc(F)c(F)c1` [Example 3, Phe(3,4-F2)-N-Me-Val-N-Me-Tyr(3-tBu)-NH2] (H-[Phe(3,4-F2)]-[NMeV]-[NMeTyr(3-tBu)]-NH2) came in with a concentration for half-maximal inhibition (IC50) on motilin receptor of 1.5 nM. Besides, the Kb in test [1] is 2 nM.
At motilin receptor, `CC(C)[C@@H](C(=O)N[C@H](CNS(C)(=O)=O)Cc1ccc(O)c(C(C)(C)C)c1)N(C)C(=O)[C@@H](N)Cc1ccc(F)cc1` [Example 14, N-[2-(3-tert-butyl-4-hydroxyphenyl)-1-(methanesulfonylaminomethyl)ethyl]-2-[N-(4-fluorophenylalaminoyl)methylamino]-3-methylbutanamide] registered an IC50 of 0.7 nM. Moreover, the Kb in test [1] was 0.501 nM.
Turning to `CN(C(=O)[C@@H](N)Cc1ccc(F)cc1)[C@@H](Cc1ccc(F)cc1)C(=O)N(C)[C@@H](Cc1ccc(O)c(C(C)(C)C)c1)C(N)=O` [Example 157, Phe(4-F)-N-Me-Phe(4-F)-N-Me-Tyr(3-tBu)-NH2] (H-[Phe(4-F)]-[NMePhe(4-F)]-[NMeTyr(3-tBu)]-NH2), the IC50 on motilin receptor was 6.1 nM. Also, the Kb in test [1] was 7.94 nM.
Taken in the same sequence, the figures for `CCN[C@@H](Cc1ccc(F)cc1)C(=O)N(C)[C@H](C(=O)N[C@@H](Cc1ccc(O)c(C(C)(C)C)c1)C(=O)NC)C(C)C` [Example 33, N-Et-Phe(4-F)-N-Me-Val-Tyr(3-tBu)-NHMe] were 1.7 nM and 3.98 nM.
For `CCNC(=O)[C@H](Cc1ccc(O)c(C(C)(C)C)c1)NC(=O)[C@H](C(C)C)N(C)C(=O)[C@H](Cc1ccc(F)cc1)NCC` [Example 103, N-Et-Phe(4-F)-N-Me-Val-Tyr(3-tBu)-NHEt], in that order: 0.86 nM and 1.26 nM.
Taken in the same sequence, the figures for `CN[C@@H](Cc1ccc(F)cc1)C(=O)N(C)[C@H](C(=O)N[C@@H](Cc1ccc(O)c(C(C)(C)C)c1)C(N)=O)C(C)C` [Example 29, N-Me-Phe(4-F)-N-Me-Val-Tyr(3-tBu)-NH2] (H-[NMePhe(4-F)]-[NMeV]-[Tyr(3-tBu)]-NH2) were 0.45 nM and 2 nM.
With `CC(C)[C@@H](C(=O)N[C@H](CNC(N)=O)Cc1ccc(O)c(C(C)(C)C)c1)N(C)C(=O)[C@@H](N)Cc1ccc(F)cc1` [Example 9, N-(2-(2-((2-amino-3-(4-fluorophenyl)propionyl)-N-methylamino)-3-methylbutyrylamino)-3-(3-tBu-4-hydroxyphenyl)propyl)urea], the IC50 on motilin receptor turned out to be 1 nM. In addition, the Kb in test [1] is 1 nM.
On motilin receptor, `CCN(C(=O)[C@H](C(C)C)N(C)C(=O)[C@H](Cc1ccc(F)cc1)NC)[C@@H](Cc1ccc(O)c(C(C)(C)C)c1)C(N)=O` [Example 40, N-Me-Phe(4-F)-N-Me-Val-N-Et-Tyr(3-tBu)-NH2] registered a half-maximal inhibitory concentration (IC50) of 1.6 nM. Also, the Kb in test [1] is 2.51 nM.
For `CC(C)[C@@H](C(=O)N(C)[C@@H](Cc1ccc(O)c(C(C)(C)C)c1)C(=O)N1CCN(S(C)(=O)=O)CC1)N(C)C(=O)[C@@H](N)Cc1ccc(F)cc1` [Example 134, (2S)-2-[(2S)-2-amino-3-(4-fluorophenyl)-N-methylpropanolyamino]-N-((1S)-1-{[3-(tert-butyl)-4-hydroxyphenyl]methyl}-2-[4-(methylsulfonyl)piperazinyl]-2-oxoethyl)-3-methyl-N-methylbutanamide], in that order: 1.5 nM and 5.01 nM.
On motilin receptor, `CNC(=O)[C@H](Cc1ccc(O)c(C(C)(C)C)c1)N(C)C(=O)[C@H](C(C)C)N(C)C(=O)[C@@H](N)Cc1ccc(F)cc1` [Example 36, Phe(4-F)-N-Me-Val-N-Me-Tyr(3-tBu)-NHMe] (H-[Phe(4-F)]-[NMeV]-[NMeTyr(3-tBu)]-NHMe) gave an IC50 of 2.3 nM. In test [1], the Kb was 1.58 nM.
Taken in the same sequence, the figures for `CCN[C@@H](Cc1ccc(F)cc1)C(=O)N(C)[C@H](C(=O)N[C@@H](Cc1ccc(O)c(C(C)(C)C)c1)C(N)=O)C(C)C` [Example 30, N-Et-Phe(4-F)-N-Me-Val-Tyr(3-tBu)-NH2] were 0.81 nM and 0.794 nM.
In the case of `CN[C@@H](Cc1ccc(F)cc1)C(=O)N(C)[C@H](C(=O)N(C)[C@@H](Cc1ccc(O)c(C(C)(C)C)c1)C(N)=O)C(C)C` [Example 34, N-Me-Phe(4-F)-N-Me-Val-N-Me-Tyr(3-tBu)-NH2] (H-[NMePhe(4-F)]-[NMeV]-[NMeTyr(3-tBu)]-NH2), the IC50 on motilin receptor came to 1.5 nM. Moreover, the Kb in test [1] was 0.398 nM.
For `CC(C)C[C@@H](C(=O)N(C)[C@@H](Cc1ccc(O)c(C(C)(C)C)c1)C(N)=O)N(C)C(=O)[C@@H](N)Cc1ccc(F)cc1` [Example 144, Phe(4-F)-N-Me-Leu-N-Me-Tyr(3-tBu)-NH2] (H-[Phe(4-F)]-[NMeL]-[NMeTyr(3-tBu)]-NH2), in that order: 2 nM and 3.16 nM.

The record behind these values is patent US7553969B1, “Substituted phenethylamine derivatives” (Chugai Seiyaku Kabushiki Kaisha, priority 1999, dated 2009).
